The target in assay [1] is T1, SHP2 protein (Homo sapiens, UniProt Q06124).
T1 sequence (Q06124 1-593): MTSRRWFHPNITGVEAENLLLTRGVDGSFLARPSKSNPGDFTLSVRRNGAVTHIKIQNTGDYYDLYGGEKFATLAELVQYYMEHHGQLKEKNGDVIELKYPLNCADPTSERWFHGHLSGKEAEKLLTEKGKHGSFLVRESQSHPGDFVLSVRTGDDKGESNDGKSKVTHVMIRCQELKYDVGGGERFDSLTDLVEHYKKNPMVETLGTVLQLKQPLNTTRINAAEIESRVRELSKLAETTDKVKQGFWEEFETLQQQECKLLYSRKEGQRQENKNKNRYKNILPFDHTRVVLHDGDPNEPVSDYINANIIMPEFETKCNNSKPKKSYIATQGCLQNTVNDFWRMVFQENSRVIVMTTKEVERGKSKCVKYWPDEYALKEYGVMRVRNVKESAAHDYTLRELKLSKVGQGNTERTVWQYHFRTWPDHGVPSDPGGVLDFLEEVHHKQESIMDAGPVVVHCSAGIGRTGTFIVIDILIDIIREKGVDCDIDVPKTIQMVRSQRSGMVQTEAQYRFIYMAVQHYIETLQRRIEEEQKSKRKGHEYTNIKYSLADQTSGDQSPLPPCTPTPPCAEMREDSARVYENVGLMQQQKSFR
Briefly: Measurement of SHP2 protein degradation in MV-4-11 cells (western blotting). The class given is cell-based. Details: endogenous in cells. The conditions noted are these: harvested after 24 hours. The protocol: MV-4-11 cells were treated with the synthesized Example compounds, and the amount of SHP2 protein present in the cells was measured using western blotting detection. The protocol for the experiment conducted using MV-4-11 cells is as follows.
[Culture] MV-4-11 cells were resuspended in IMDM MEDIUM (Hyclone, SH30228.01), 5% FBS (Hyclone, SV30207.02), 1% Penicillin-streptomycin (Welgene, LS 202-02) media and seeded at 1×10^6/mL in 12-well plates (1 mL each).
[Compound treatment]12-well plates were treated as follows. 10 mM stock dissolved in DMSO was serially diluted 1/100 or 1/10 with media, and the compounds were treated to the cells at a final concentration of 0.01, 0.1, 1 μM or 0.001, 0.01, 0.1 μM, and harvested after 24 hours. For the negative control group, DMSO diluted 1/100 or 1/1000 in media was added (3 μL DMSO+297 μL media or 1 μL DMSO+999 μL media).
[Harvest] Each well was pipetted with a 1 mL pipette, collected in a 1.5 mL microtube, and centrifuged (500 g, 5 min, 4° C.). The supernatant was removed, washed with PBS, and centrifuged again (500 g, 5 min, 4° C.). The supernatant was removed and a pellet was prepared.
[Cell lysis and sample preparation] Lysis buffer was prepared as follows. RIPA buffer (Biosesang, RC2038-050-00)+0.5 mM PMSF (SIGMA, P7626)+1× Protease/Phosphatase Inhibitor (Cell signaling, 5872S) were added at 50 μL per tube and incubated on ice for 30 minutes (vortexed at 0 and 30 minutes). After sonication (10 sec pulse, 30 sec rest, 5 cycles, 70% amplification) and centrifugation (15,000 g, 15 min, 4° C.), only the supernatant was transferred to a microtube. RIPA buffer 7.5 μL and sample 2.5 μL were added to a 96-well plate to dilute to 1/4, and then BCA Protein Assay Kit (iNtRON, 21071) A and B were mixed in a 50:1 ratio and 200 μL each was added. After that, the plate was incubated at 37° C. for 30 minutes and left at room temperature for 10 minutes. After shaking for 10 seconds with a SYNERGY H1 microplate reader from BioTek, the absorbance was measured at 562 nm. The protein was quantified using the measured value to prepare a sample, which was then incubated at 70° C. for 10 minutes. The sample buffer used at this time is a mixture of NuPAGE or Bolt 4× sample buffer (Invitrogen) and each 10× sample reducing agent according to the gel to be used, and RIPA buffer was used for protein dilution.
[Western blotting detection] Equal amounts of samples were loaded onto NuPAGE or Bolt Bis-tris 4-12% gradient gels and run (200 V, 35 min). This was transferred to […] NC membranes using Trans-blot Turbo (BIO-RAD) (1.3 A constant, 25 V limit, 15 min), and was blocked at room temperature for 1 hour with Skim milk or Intercept Blocking Buffer (LI-COR, 927-60001):0.1% TBST=1:1. Anti-SHPTP2 Mouse (1:500 in 2% BSA/0.2% TBST, size: 70 kDa, Santacruz sc-7384) was incubated overnight at 4° C., and Anti-GAPDH Rabbit (1:2,000 in 2% BSA/0.2% TBST, size: 37 kDa, CST #2118) was incubated at room temperature for 1.5 hours or 3 hours. After washing three times for 5 minutes each with 0.2% TBST washing buffer, secondary antibodies Anti-Mouse IgG (1:5,000 in 2% BSA/0.2% TBST, CST) and IRDye® 680RD Goat anti-Rabbit IgG Secondary Antibody (1:10,000 in 2% BSA/0.2% TBST, LI-COR 926-68071) were added, and incubated on a rocker at room temperature for 45 minutes. The resultants were washed five times for 5 minutes each with 0.2% TBST washing buffer, and detected using LI-COR's Odyssey. GAPDH was detected with a 700 nm channel, and SHPTP2 was detected using SuperSignal West Pico PLUS Chemiluminescent Substrate.
(A western blot detects proteins with antibodies after separation by electrophoresis.)

For assay [2], the target named is T1, SHP2 protein. Briefly: Measurement of SHP2 protein degradation in NCI-H358 cells (western blotting). Type of assay: cell-based. The arrangement: endogenous in cells; host or cells: NCI-H358. Conditions: harvested after 24 hours. The procedure, abridged: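 H358 cells in RPMI1640/25 mM HEPES/10% FBS, cultured 24 h, then exposed to compound at final 0.001, 0.01 and 0.1 μM for 24 h against a DMSO control. Lysates were normalised for protein by BCA and probed by western blot for SHP2, with GAPDH as loading control.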

Consider `Cc1ncsc1-c1ccc(CNC(=O)[C@@H]2C[C@@H](O)CN2C(=O)[C@@H](NC(=O)C2(F)CC2)C(C)(C)C)c(O[C@H]2CC[C@H](C(=O)N3CCC(Nc4nccc(Sc5cnc(N6CCC(C)(N)CC6)cn5)c4Cl)CC3)CC2)c1` [Example 24, (2S,4R)—N-(2-(((1R,4S)-4-(4-((4-((5-(4-amino-4-methylpiperidin-1-yl)pyrazin-2-yl)thio)-3-chloropyridin-2-yl)amino)piperidine-1-carbonyl)cyclohexyl)oxy)-4-(4-methylthiazol-5-yl)benzyl)-1-((S)-2-(1-fluorocyclopropane-1-carboxamido)-3,3-dimethylbutanoyl)-4-hydroxypyrrolidine-2-carboxamide], for which the SHP2% degradation at SHP2 protein [1] (0.01 μM) came to 83.1%; on SHP2 protein [1] (0.1 μM), 100.0%.
In the same order, the values of `Cc1ncsc1-c1ccc(CNC(=O)[C@@H]2C[C@@H](O)CN2C(=O)[C@@H](NC(=O)C2(F)CC2)C(C)(C)C)c(OC2CCN(C[C@H]3CC[C@H](Nc4nccc(Sc5cnc(N6CCC(C)(CN)CC6)cn5)c4Cl)CC3)CC2)c1` [Example 7, (2S,4R)—N-(2-((1-(((1R,4S)-4-((4-((5-(4-(aminomethyl)-4-methylpiperidin-1-yl)pyrazin-2-yl)thio)-3-chloropyridin-2-yl)amino)cyclohexyl)methyl)piperidin-4-yl)oxy)-4-(4-methylthiazol-5-yl)benzyl)-1-((S)-2-(1-fluorocyclopropane-1-carboxamido)-3,3-dimethylbutanoyl)-4-hydroxypyrrolidine-2-carboxamide] are 10.1% and 55.4%.
In the same order, the values of `Cc1ncsc1-c1ccc(CNC(=O)[C@@H]2C[C@@H](O)CN2C(=O)[C@@H](NC(=O)C2(F)CC2)C(C)(C)C)c(OC2CCN(C(=O)[C@H]3C[C@H](Nc4nccc(Sc5cnc(N6CCC(C)(CN)CC6)cn5)c4Cl)C3)CC2)c1` [Example 61, (2S,4R)—N-(2-((1-((1r,3S)-3-((4-((5-(4-(aminomethyl)-4-methylpiperidin-1-yl)pyrazin-2-yl)thio)-3-chloropyridin-2-yl)amino)cyclobutanecarbonyl)piperidin-4-yl)oxy)-4-(4-methylthiazol-5-yl)benzyl)-1-((S)-2-(1-fluorocyclopropane-1-carboxamido)-3,3-dimethylbutanoyl)-4-hydroxypyrrolidine-2-carboxamide] are 80.3% and 99.3%.
`CC(=O)N[C@H](C(=O)N1C[C@H](O)C[C@H]1C(=O)N[C@@H](C)c1ccc(-c2scnc2C)cc1O[C@H]1CC[C@H](C(=O)N2CC(Nc3cccc(Sc4cnc(N5CCC(C)(CN)CC5)cn4)c3Cl)C2)CC1)C(C)(C)C` [Example 48, (2S,4R)-1-((S)-2-acetamido-3,3-dimethylbutanoyl)-N—((S)-1-(2-(((1R,4S)-4-(3-((3-((5-(4-(aminomethyl)-4-methylpiperidin-1-yl)pyrazin-2-yl)thio)-2-chlorophenyl)amino)azetidine-1-carbonyl)cyclohexyl)oxy)-4-(4-methylthiazol-5-yl)phenyl)ethyl)-4-hydroxypyrrolidine-2-carboxamide]: the figures for the SHP2% degradation at SHP2 protein [2] (0.01 μM) and at SHP2 protein [2] (0.1 μM) were 88.8% and 98.3%, respectively.
Consider `Cc1cn([C@H](C(=O)N2C[C@H](O)C[C@H]2C(=O)NCc2ccccc2OC2CCN(C(=O)C3CCN(c4nccc(Sc5cnc(N6CCC7(CC6)CO[C@@H](C)[C@H]7N)c(CO)n5)c4Cl)CC3)CC2)C(C)C)nn1` [Example 111, (2S,4R)—N-(2-((1-(1-(4-((5-((3S,4S)-4-amino-3-methyl-2-oxa-8-azaspiro[4.5]decan-8-yl)-6-(hydroxymethyl)pyrazin-2-yl)thio)-3-chloropyridin-2-yl)piperidine-4-carbonyl)piperidin-4-yl)oxy)benzyl)-4-hydroxy-1-((S)-3-methyl-2-(4-methyl-1H-1,2,3-triazol-1-yl)butanoyl)pyrrolidine-2-carboxamide], for which the SHP2% degradation at SHP2 protein [2] (0.01 μM) is recorded as 98.0%; on SHP2 protein [2] (0.1 μM) it was 99.9%.
As to `Cc1ncsc1-c1ccc(CNC(=O)[C@@H]2C[C@@H](O)CN2C(=O)[C@@H](n2cc(C3CC3)nn2)C(C)(C)C)c(OC2CCN(C(=O)C3CCN(c4nccc(Sc5cnc(N6CCC(C)(CN)CC6)cn5)c4Cl)CC3)CC2)c1` [Example 107, (2S,4R)—N-(2-((1-(1-(4-((5-(4-(aminomethyl)-4-methylpiperidin-1-yl)pyrazin-2-yl)thio)-3-chloropyridin-2-yl)piperidine-4-carbonyl)piperidin-4-yl)oxy)-4-(4-methylthiazol-5-yl)benzyl)-1-((S)-2-(4-cyclopropyl-1H-1,2,3-triazol-1-yl)-3,3-dimethylbutanoyl)-4-hydroxypyrrolidine-2-carboxamide], the SHP2% degradation on SHP2 protein [2] (0.01 μM) came to 96.5%; at SHP2 protein [2] (0.1 μM) it was 99.2%.
As for `Cc1cc(C(C(=O)N2C[C@H](O)C[C@H]2C(=O)NCc2ccc(-c3scnc3C)cc2OC2CCN(C(=O)C3CCN(c4nccc(Sc5cnc(N6CCC7(CC6)CO[C@@H](C)[C@H]7N)c(CO)n5)c4Cl)CC3)CC2)C(C)C)on1` (stereo partly drawn) [Example 98, (2S,4R)—N-(2-((1-(1-(4-((5-((3S,4S)-4-amino-3-methyl-2-oxa-8-azaspiro[4.5]decan-8-yl)-6-(hydroxymethyl)pyrazin-2-yl)thio)-3-chloropyridin-2-yl)piperidine-4-carbonyl)piperidin-4-yl)oxy)-4-(4-methylthiazol-5-yl)benzyl)-4-hydroxy-1-(3-methyl-2-(3-methylisoxazol-5-yl)butanoyl)pyrrolidine-2-carboxamide], the values for the SHP2% degradation on SHP2 protein [2] (0.01 μM) and at SHP2 protein [2] (0.1 μM) were 99.6% and 99.7%, respectively.

The record behind these values is patent US20260144788A1, “COMPOUND FOR SHP2 PROTEIN DEGRADATION AND MEDICAL USES THEREOF” (UBIX THERAPEUTICS, INC., priority 2022, published 2026).
